Measured values published in patent EP1127890A1, “Steroid derivatives with an additional ring annulated to ring A and use of these derivatives for the preparation of meiosis regulating medicaments” (SCHERING AKTIENGESELLSCHAFT, priority 2000, dated 2001).
Where “and” joins values, the source holds several entries; their conditions need not be identical. Identical values can stand only once.

Tests used:
naked mouse oocytes [1] = experiment: Test of meiosis-inhibiting substances in the oocyte test (co-culture with FF-MAS in Hx-medium); assay type: cell-based; conditions: for Oocytes [n] GV: number of oocytes with germinal vesicle; for Oocytes [n] GVB: number of oocytes with germinal vesicle breakdown; for Oocytes [n] PB: number of oocytes with polar bodies
Method: Oocytes were obtained from immature female mice (C57BI/6J × DBA/2J F1-hybrids, Bomholtgaard, Denmark) weighing 13 - 16 grams, that were kept under controlled lighting and temperature. The mice received an intra-peritoneal injection of 0.2 ml gonadotropins (Gonal F, Serono, Solna, Sweden , containing 20 IU FSH, alternatively, Puregon, Organon, Swords, Ireland containing 20 IU FSH) and 48 hours later the animals were killed by cervical dislocation. The ovaries were dissected out and the oocytes were isolated in Hx-medium (see below) under a stereo microscope by manual rupture of the follicles using a pair of 27 gauge needles. Spherical, naked oocytes (NO) displaying an intact germinal vesicle (GV) were placed in α-minimum essential medium (α-MEM without ribonucleosides, Gibco BRL, Cat.No. 22561) supplemented with 3 mM hypoxanthine (Sigma Cat. No. H-9377), 8 mg/ml Human Serum Albumin (HSA, State Serum Institute, Denmark), 0,23 mM pyrubate (Sigma, Cat. No. S-8636), 2 mM glutamine (Flow Cat. No. 16-801), 100 IU/ml penicillin and 100 µg/ml streptomycin (Flow, Cat No. 16-700). This medium was designated Hx-medium. The oocytes were rinsed three times in Hx-medium and cultured in 4-well multidishes (Nuncion, Denmark) in which each well contained 0.4 ml of Hx-medium and 30 - 40 oocytes. One control (i.e. 30 - 40 oocytes cultured in Hx-medium with no addition of test compound) was always run simultaneously with the test cultures, which were made with different concentrations of the compounds to be tested. The cultures were performed at 37 °C and 100 % humidity with 5 % CO2 in air. The culture time was 22 - 24 hours. Germinal vesicle (GV) oocytes were obtained from immature FSH treated female mice using the same methods as described in Example 1 (see above). Naked oocytes (NO) were rinsed three times in Hx-medium. […] NO were cultured in Hx-medium supplemented with 5 µM FF-MAS in co-culture with the test compounds in different concentrations in 4-well multidishes (Nunclon, Denmark) in which each well contained 0.4 ml of Hx-medium and 30 - 40 oocytes. One positive control (i.e., 30 - 40 oocytes cultured in Hx-medium containing FF-MAS with no addition of test compound) was always run simultaneously with the test cultures, which were supplemented with different concentrations of the compounds to be tested. In addition, one negative control ( 30 - 40 oocytes cultured in Hx-medium alone) was run simultaneously with the positive control. By the end of the culture period, the number of oocytes with germinal vesicle (GV) or germinal vesicle breakdown (GVB) and those with polar body (PB) was counted using a stereo microscope or an inverted microscope with differential interference contrast equipment. The percentage of oocytes with GVB + PB per total number of oocytes were calculated in the test cultures and in the control (positive and negative) culture groups. The relative inhibition of the test compound was calculated by the following formula: inhibition test compound (%) = 100% - [(GVB+PB (test compound) - GVB+PB (negative control)) x 100 / GVB+PB(positive control) - GVB+PB (negative control)] % [formula] Oocytes arrested in meiosis are characterised by an intact nucleus with a prominent nucleolus, known as germinal vesicle (GV). Upon reinitiation of meiosis the nucleolus and the nuclear envelope disappear and this is characterised by a breakdown of the GV, which than is called germinal vesicle breakdown (GVB). Some hours later the oocyte complete a reductional division and elicit the first so called polar body (PB).

naked mouse oocytes [2] = experiment: Testing of meiosis-activating substances in the oocyte test (Hx-medium); assay type: cell-based; conditions: 10 µM in Hx-medium
Method: Oocytes were obtained from immature female mice (C57BI/6J × DBA/2J F1-hybrids, Bomholtgaard, Denmark) weighing 13 - 16 grams, that were kept under controlled lighting and temperature. The mice received an intra-peritoneal injection of 0.2 ml gonadotropins (Gonal F, Serono, Solna, Sweden , containing 20 IU FSH, alternatively, Puregon, Organon, Swords, Ireland containing 20 IU FSH) and 48 hours later the animals were killed by cervical dislocation.
The ovaries were dissected out and the oocytes were isolated in Hx-medium (see below) under a stereo microscope by manual rupture of the follicles using a pair of 27 gauge needles. Spherical, naked oocytes (NO) displaying an intact germinal vesicle (GV) were placed in α-minimum essential medium (α-MEM without ribonucleosides, Gibco BRL, Cat.No. 22561) supplemented with 3 mM hypoxanthine (Sigma Cat. No. H-9377), 8 mg/ml Human Serum Albumin (HSA, State Serum Institute, Denmark), 0,23 mM pyrubate (Sigma, Cat. No. S-8636), 2 mM glutamine (Flow Cat. No. 16-801), 100 IU/ml penicillin and 100 µg/ml streptomycin (Flow, Cat No. 16-700). This medium was designated Hx-medium. The oocytes were rinsed three times in Hx-medium and cultured in 4-well multidishes (Nuncion, Denmark) in which each well contained 0.4 ml of Hx-medium and 30 - 40 oocytes. One control (i.e. 30 - 40 oocytes cultured in Hx-medium with no addition of test compound) was always run simultaneously with the test cultures, which were made with different concentrations of the compounds to be tested. The cultures were performed at 37 °C and 100 % humidity with 5 % CO2 in air. The culture time was 22 - 24 hours.
By the end of the culture period, the number of oocytes with germinal vesicle (GV) or germinal vesicle breakdown (GVB) and those with polar body (PB) was counted using a stereo microscope or an inverted microscope with differential interference contrast equipment. The percentage of oocytes with GVB per total number of oocytes and the percentage of oocytes with PB per total number of oocytes was calculated in the test cultures and compared to the control culture.
Oocytes arrested in meiosis are characterised by an intact nucleus with a prominent nucleolus, known as germinal vesicle (GV). Upon reinitiation of meiosis the nucleolus and the nuclear envelope disappear and this is characterised by a breakdown of the GV, which than is called germinal vesicle breakdown (GVB). Some hours later the oocyte complete a reductional division and elicit the first so called polar body (PB).

[3] = 5µM FF-MAS + 10 µM test compound in Hx-medium
[4] = 5µM FF-MAS + 10 µM test compound in Hx-medium, relative inhibition of meiosis
[5] = 5µM FF-MAS alone in Hx-medium (positive control)

Question: `CC(C)=CCO[C@H]1CC[C@H]2[C@@H]3CC[C@]45C[C@H](CC[C@]4(C)[C@H]3CC[C@]12C)OC5=O` [Example 12, 17β-(prenyloxy)-5β-androstane-5,3β-carbolactone] was tested. Which “Oocytes [n] GV” value (naked mouse oocytes [1]; [3]) did it give?
Answer: 24 n

Question: And the “Oocytes [n] GVB” value (naked mouse oocytes [1]; [3])?
Answer: 9 n

Question: What about the “Oocytes [n] PB” value (naked mouse oocytes [1]; [3]) of the same compound?
Answer: 1 n

Question: And the “Inhibition [%]” value (naked mouse oocytes [1]; [4])?
Answer: 84%

Question: With `CC(C)CCC[C@@H](C)[C@H]1CC[C@H]2C3=C(CC[C@]12C)[C@@]1(C)CC[C@@]2(OCCO)C[C@]1(CC3)[C@H](C)O2` [Example 5, 2-[(4aα-methyl-4a-homo-3α,5-methano-4-oxa-5α-cholest-8-en-3β-yl)oxy]ethanol] as the compound, how does the “Oocytes [n] GV” value (naked mouse oocytes [1]; [3]) read?
Answer: 30 n

Question: What about the “Oocytes [n] GVB” value (naked mouse oocytes [1]; [3]) of the same compound?
Answer: 0 n

Question: What about the “Oocytes [n] PB” value (naked mouse oocytes [1]; [3]) of the same compound?
Answer: 0 n

Question: What about the “Inhibition [%]” value (naked mouse oocytes [1]; [4]) of the same compound?
Answer: 100%

Question: Which “Oocytes [n] GV” value (naked mouse oocytes [1]; [5]) does the source give for `CC(C)=CCC[C@@H](C)[C@H]1CC=C2C3=C(CC[C@@]21C)[C@@]1(C)CC[C@H](O)C(C)(C)[C@@H]1CC3` [FF-MAS, 4,4-Dimethylcholest-B, 14,24-trien-3β-ol] here?
Answer: 4 n and 8 n

Question: And the “Oocytes [n] GVB” value (naked mouse oocytes [1]; [5])?
Answer: 16 n and 25 n

Question: And the inhibition at 5 µM (naked mouse oocytes [1]; Mus musculus, Oocyte, 5µM FF-MAS alone in Hx-medium (positive control), relative inhibition of meiosis)?
Answer: 0%

Question: What about the “Oocytes [n] GV” value (naked mouse oocytes [2]) of the same compound?
Answer: 6 n

Question: What about the “Oocytes [n] GVB” value (naked mouse oocytes [2]) of the same compound?
Answer: 31 n

Question: And the “Oocytes [n] PB” value (naked mouse oocytes [2])?
Answer: 2 n

Question: What about the activation at 10 µM (naked mouse oocytes [2]; Mus musculus, Oocyte, read-out: Activation [%] GVB+PB) of the same compound?
Answer: 85%
